This is an account of results in publication PMC4226840, “An open-label study to determine the maximum tolerated dose of the multitargeted tyrosine kinase inhibitor CEP-11981 in patients with advanced cancer” (Investigational New Drugs, 2014).

The term IC50 denotes the concentration that inhibits the measured activity by half.

Data set [1] can be described thus: Phase I dose escalation: MTD and DLTs. It is filed as in vivo, human. As to the method: This was an open-label, nonrandomized, multicenter, dose-escalation phase I study of CEP-11981 in patients with advanced, relapsed/refractory solid tumors. The study was conducted in accordance with Good Clinical Practice: Consolidated Guidance approved by the International Conference on Harmonisation, and applicable national and local laws and regulations and approved by appropriate Independent Ethics Committees or Institutional Review Boards. All patients provided written consent before study procedures or assessments were performed.
The primary measures were MTD and DLTs. MTD was defined as the highest dose at which one-third or fewer of patients in a cohort experienced a DLT, which included grade ≥ 2 proteinuria, grade ≥ 3 nonhematologic toxicity (excluding hypertension and pain), grade ≥ 3 thrombocytopenia with bleeding, or grade 4 hematologic toxicity that was not clearly due to progressive cancer. Secondary measures included the pharmacokinetics of CEP-11981 after a single dose and multiple doses, the pharmacokinetic-pharmacodynamic profile of CEP-11981, safety, and preliminary efficacy. The efficacy endpoint was the proportion of patients who achieved complete or partial response on study (minimum of 6 weeks) according to Response Evaluation Criteria in Solid Tumors (RECIST) guidelines.
Oral CEP-11981 was administered once daily for the first 28 days of each 42-day cycle. Initial dose escalation from the starting dose of 3 mg/m^2 was by 40 % increments. After completion of additional toxicology studies and the preliminary analysis of plasma exposure in patients, the dose for the fourth cohort was doubled from the third cohort and thereafter the escalation followed a modified Fibonacci sequence. The final dose levels were: 3.0, 4.2, 5.9, 11.8, 19.7, 29.6, 41.4, 55.0, 73.0, 97.4, and 126.6 mg/m^2. The dose administered was rounded to the smallest capsule strength available. Dosing for a patient was to be stopped at the onset of a DLT and, at resolution within 14 days, could be resumed at a dose equal to 50 % of the patient’s current dose. […]

The next data set has as its system VEGFR-2/KDR. Briefly: Ex vivo bioassay of cellular VEGFR-2/KDR kinase inhibition with patient plasma in TrkA-VEGFR-2/KDR chimeric PAE cells. It is filed as cell-based. As to the method:
Pharmacokinetic parameters calculated after a single dose of CEP-11981 included area under the plasma drug concentration versus time curve (AUC) from zero to infinity (AUC0-∞), to the last measurable concentration (AUC0-t), and to 24 h (AUC0–24); maximum observed plasma drug concentration (Cmax); time to maximum observed plasma drug concentration (Tmax); terminal elimination half-life (t½); and predicted accumulation ratio (Rpred), which was defined as AUC0–∞ (day 1, cycle 1)/AUC0–24 (day 1, cycle 1). Pharmacokinetic parameters calculated after multiple doses included AUC0-t, Cmax, Tmax, and t½, and observed accumulation ratio (Robs). Robs was defined as AUC for 1 dosing interval following multiple doses (AUCτ; day 15, cycle 1)/AUC0–24 (day 1, cycle 1). […] Pharmacodynamics was assessed by VEGFR-2/KDR inhibitory activity in response to CEP-11981 treatment.
The venous blood samples for pharmacokinetic analysis were collected on days 1 and 15 of dosing during cycle 1 immediately before dose administration and at 0.5, 1, 1.5, 2, 3, 4, 6, 8, 12 (this sample was optional and could be collected from 10 to 14 h), and 24 h postdose, as well as on days 8, 22, 29, and 43. The venous blood samples for pharmacokinetic-pharmacodynamic analysis were collected on days 1 and 15 of dosing during cycle 1 immediately before dose administration and at 1 h postdose, and on day 43. At each draw, 2 samples were obtained in 6-mL sodium heparinized vacutainers. Plasma was obtained and stored at −70 °C until shipment to the sponsor for analysis.
A bioassay with engineered chimeric porcine aortic endothelial (PAE) cell lines stably expressing a TrkA-VEGFR-2/KDR domain was used to evaluate human plasma-associated shifts in cellular IC50 for CEP-11981 inhibition of ligand-stimulated VEGFR-2/KDR phosphorylation. Plasma samples for the bioassay were obtained 1 h postdose and on days 1 and 15; they were collected from patients across cohorts.

A further data set concerns VEGFR-1. More on the design: method as in PMID 22148921. Particulars: in vitro; cited from earlier work.
Another data set has as its system proto-oncogene c-SRC. More on the design: method as in PMID 22148921. Particulars: cited from earlier work.
The next data set relates to Aurora A. The arrangement: method as in PMID 22148921. Particulars: cited from earlier work.

Sequence of VEGFR-2/KDR (P35968 786-1356 limits assumed): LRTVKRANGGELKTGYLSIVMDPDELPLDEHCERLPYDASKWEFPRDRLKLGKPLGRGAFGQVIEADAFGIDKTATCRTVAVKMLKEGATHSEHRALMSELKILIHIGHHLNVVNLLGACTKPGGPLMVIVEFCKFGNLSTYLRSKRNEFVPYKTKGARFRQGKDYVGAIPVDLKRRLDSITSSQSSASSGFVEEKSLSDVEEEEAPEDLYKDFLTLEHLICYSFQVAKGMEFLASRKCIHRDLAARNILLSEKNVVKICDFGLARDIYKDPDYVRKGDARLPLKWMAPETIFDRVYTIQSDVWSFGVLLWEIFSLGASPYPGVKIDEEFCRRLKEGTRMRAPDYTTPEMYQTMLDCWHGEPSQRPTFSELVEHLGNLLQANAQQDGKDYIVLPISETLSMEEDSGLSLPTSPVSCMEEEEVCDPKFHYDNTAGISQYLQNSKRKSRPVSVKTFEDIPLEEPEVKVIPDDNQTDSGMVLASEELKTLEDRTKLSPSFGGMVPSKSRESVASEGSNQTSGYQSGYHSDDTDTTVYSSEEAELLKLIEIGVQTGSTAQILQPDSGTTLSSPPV

As to “11-(2-methylpropyl)-12,13-dihydro-2-methyl-8-(pyrimidin-2-ylamino)-4H-indazolo[5,4-a]pyrrolo[3,4-c]carbazol-4-one [CEP-11981]”, in data set [1] (97.4 mg/m^2 cohort, n = 9), the DLTs result is given as “no DLTs were observed”. In data set [1] (126.6 mg/m^2 cohort, n = 2), the “Patients with DLTs” value turned out to be 2 patients. Besides, the “Maximum-tolerated dose (MTD)” value in data set [1] (oral once daily, first 28 days of each 42-day cycle, patients with solid tumors) amounted to 97.4 mg/m^2. Moreover, the “Patients with quintile 5 ex vivo VEGFR-2/KDR inhibition” value in the data set on VEGFR-2/KDR (97.4 mg/m^2) was 3 of 5; in the data set with VEGFR-2/KDR (126.6 mg/m^2), 1 of 1. For the same substance, in the data set with VEGFR-2/KDR (plasma from lower dose cohorts (3.0, 4.2, 5.9, 11.8, and 19.7 mg/m^2), normalized to predose baseline), the “Inhibition of VEGFR-2/KDR kinase” value is “Less than 50%”. Besides, the “Normalized mean cellular VEGFR-2/KDR inhibition” value with VEGFR-2/KDR (plasma primarily from 73.0, 97.4, and 126.6 mg/m^2 cohorts (quintile 5)) was not below 81%. Moreover, the IC50 in the data set on VEGFR-1 is 3 nM; in the data set on proto-oncogene c-SRC, 37 nM; in the data set with Aurora A, 42 nM.
